In patent US20090202428A1, “Use of Dtbz for Imaging Endocrine Pancreas and Beta Cell Mass In Type 1 Diabetes” (priority 2005, published 2009):

What was measured:
[1] = system: islet membranes (purified human islets); test: binding of [3H]DTBZ to total membrane fractions from purified human islets
Text: (§1) Previous studies, at both protein and nucleic acid levels, have shown the underlying physiochemical basis for this functional similarity (Atouf, et al, 1997, Expression of neuronal traits in pancreatic beta cells. Implication of neuron-restrictive silencing factor/repressor element silencing transcription factor, a neuron-restrictive silencer, J Biol Chem 272:1929-1934, Bernal-Mizrachi, et al, 2003, Gene expression profiling in islet biology and diabetes research, Diabetes Metab Res Rev 19:32-42, and […] al, 1996, Differentiation and growth of pancreatic beta cells, Diabetes Metab 22:223-228). The inventors own gene expression mapping studies led them to focus on one such shared gene product, VMAT2, vesicular monoamine transporter type 2, expressed by β-cells, but absent from the exocrine pancreas and a variety of-the other abdominal organs ([…], et al, 2004, Identification of tissue-restricted transcripts in human islets, Endocrinology 145:4513-4521). A specific ligand for VMAT2, dihydrotetrabenazine (DTBZ) is already in clinical use for positron emission tomography (PET) imaging of central nervous system disorders (Vander Borght, et al, 1995, In vivo imaging of the brain vesicular monoamine transporter, J Nucl Med 36:2252-2260). The inventors studied the binding of [3H]DTBZ to total membranes fractions prepared from purified human islets and purified exocrine pancreas tissue.

[2] = system: membranes from the exocrine pancreas; test: binding of [3H]DTBZ to total membrane fractions from purified exocrine pancreas tissue; set-up: species or system human
Text: as §1

endocrine pancreas = test: serial PET imaging with [11C]DTBZ in the spontaneously diabetic BB-DP rat model; type: in vivo; settings: series of ten BB-DP rats, compared with IPGTT
Method: Blood samples were collected from the rat tail vein. The blood glucose (BG) levels of the rats were monitored daily using an Accu-Check blood glucose monitoring system (Roche Diagnostics, Somerville, N.J.). […] After baseline BG measurements, animals received an intraperitoneal injection of 1 g glucose/kg body wt. BG concentrations were measured again 5, 10, 15, 30, 60, and 120 min later. Animals were considered diabetic when four consecutive BG values were above 300 mg/dL and had abnormal IPGTT responses. Animals were imaged at baseline before the development of diabetes at day 45.
PET scans were performed serially on the study subject at approximately day 50 and then every two weeks until the animals developed stable diabetes. Prior to imaging, the animals were anesthetized with intrapertioneal injections of ketamine and xylazine. After a whole-body transmission scan had been obtained (used to perform attenuation correction of the emission data), the radioligand was taken up in a sterile saline vehicle and 200-300 μCi of [11C] DTBZ was administered in a bolus injection via the penile vein. PET scans of the animals were acquired dynamically to 60 min post injection on a Concorde microPET-R4 (CTI Molecular Imaging, Knoxville, Tenn., USA). The scanner provided a 100×80 mm field of view with a reconstructed resolution of 2.25 mm in the central 40 mm of the field of view. […]

[3] = molecular target: T1, VMAT2 expressed by β-cells of the endocrine pancreas (Rattus norvegicus, UniProt Q01827); test: PET imaging with [11C]DTBZ of normal and STZ induced diabetic Lewis rats; type: in vivo
T1 construct: The inventors next targeted VMAT2 expressed by β-cells of the endocrine pancreas with [11C]; DTBZ; from tissue; host or cells: pancreas (beta cells of the islets) of living Lewis rats, normal and STZ-induced diabetic
T1 sequence (Q01827 whole entry): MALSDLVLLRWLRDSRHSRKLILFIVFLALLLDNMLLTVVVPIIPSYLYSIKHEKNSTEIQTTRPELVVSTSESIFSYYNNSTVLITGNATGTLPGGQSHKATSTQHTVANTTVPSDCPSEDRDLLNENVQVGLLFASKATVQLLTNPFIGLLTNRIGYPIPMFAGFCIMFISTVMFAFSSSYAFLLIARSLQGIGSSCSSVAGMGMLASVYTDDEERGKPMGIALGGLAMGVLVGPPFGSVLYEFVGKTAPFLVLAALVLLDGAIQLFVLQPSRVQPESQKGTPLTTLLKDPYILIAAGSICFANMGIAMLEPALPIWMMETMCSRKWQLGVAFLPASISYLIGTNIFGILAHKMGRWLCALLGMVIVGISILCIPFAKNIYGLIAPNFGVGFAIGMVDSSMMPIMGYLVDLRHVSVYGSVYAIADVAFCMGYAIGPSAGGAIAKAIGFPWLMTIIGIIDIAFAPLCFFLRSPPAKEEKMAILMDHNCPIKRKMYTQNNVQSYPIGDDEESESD
Method: Specific activities of carbon-11 labeled radiotracers were >2000 mCi/μmol at the time of injection.
STZ solution was prepared fresh by dissolving it in 0.1 M citrate buffer (pH 5.5) and terminally sterile filtered. Age and weight-matched control rats were injected with citrate buffer alone.
PET scans were performed on four normal and three diabetic adult rat subjects. Prior to imaging, the animals were anesthetized with intraperitoneal injections of ketamine and xylazine. After a whole-body transmission scan had been obtained (used to perform attenuation correction of the emission data), the radioligand was taken up in a sterile saline vehicle and 200-300 μCi of [11C] DTBZ was administered in a bolus injection via the penile vein. PET scans of the animals were acquired dynamically to 60 min postinjection on a Concorde microPET-R4 (CTI Molecular Imaging, Knoxville, Tenn., USA). The scanner provided a 100×80 mm field of view with a reconstructed resolution of 2.25 mm in the central 40 mm of the field of view. PET data were processed using attenuation correction matrix obtained by transmission scans and images were reconstructed using Fourier re-binning, followed by two-dimensional, filtered back projection. […]

VMAT2 = settings: previous studies (Scherman et al.); cited from earlier work

Compound: COc1cc2c(cc1OC)[C@H]1C[C@@H](O)[C@H](CC(C)C)CN1CC2 [[3H]DTBZ]
- binding of [3H]DTBZ to islet membranes [1]: specifically bound
- binding of [3H]DTBZ to membranes from the exocrine pancreas [2]: not

Compound: COc1cc2c(cc1O[11CH3])CCN1CC(CC(C)C)C(O)CC21 (stereo not drawn) [[11C]DTBZ, [11C] dihydrotetrabenazine]
- reduction of [11C]DTBZ uptake that resulted in signs of glucose intolerance and hyperglycemia (endocrine pancreas): approximately 50%

Compound: COc1cc2c(cc1OC)[C@H]1C[C@@H](O)[C@H](CC(C)C)CN1CC2 [DTBZ, dihydrotetrabenazine]
- DTBZ uptake in gastric and splenic regions of the pancreas compared to the head of the organ ([3]; normal rat pancreata, PET): higher
- time post-injection up to which pancreatic DTBZ uptake increased monotonically ([3]; normal rat, 60 min imaging period, from 1 minute): about 50 minutes
- target specificity of DTBZ (VMAT2): specifically targets VMAT2
